The values below come from patent US20030056232A1, “Animal showing schizophrenia-like abnormality in cognitive behaviors and method of constructing the same” (priority 2000, published 2003).

What all share (type): in vivo, rat
Assay [1] concerns SD rats. In words: Prepulse inhibition (PPI) of acoustic startle response. To be noted: for prepulse inhibition of EGF administered group under clozapine (EGF CZP) vs cytochrome-C group (Cont CZP): peritoneal, everyday from postnatal day 21; for effect on prepulse inhibition in EGF administered rats: administration for one week, test 23 hours after the final administration, haloperidol 0.3 mg/kg peritoneal (FIG. 4A); for prepulse inhibition, EGF administrated group vs cytochrome-C administered group: EGF 1.75 mg/kg s.c. five times P2-P10, p<0.05. An excerpt:
As the method used to evaluate the sensorimotor and behavioral abnormalities, behavioristic measurements such as prepulse inhibition of startle response, latent inhibition, social interaction, motor activity of the animal, can be mentioned. The prepulse inhibition of startle response is a test to evaluate the ability of perception-motor activity, using the startle response as an index and the startle response can be evaluated in human being and animal in common. In this test, evaluation of attention deficit and abnormality in information processing in brain can be achieved scientifically and objectively. These are considered to be the main factors involved in schizophrenic pathology. […] This test is carried out by measurement of such reaction. Such decrease caused by the prepulse is called “prepulse inhibition”.
(§1) SD rats (Nippon SLC) from postnatal day 2 were used as the test animals. Human recombinant epidermal growth factor (EGF; Higeta Shoyu) and cytochrome-C (Sigma) were dissolved in physiological saline at 70 μL/mL. From postnatal day 2, 25 μL of the solution per 1 g of the body weights of rats (each 1.75 mg/kg) was subcutaneously administered to the rat at the nape of the neck every other day. This operation was repeated five times until postnatal day 10. From postnatal day 21, the startle response and the prepulse inhibition were measured in a startled chamber (San diego Instruments). That is, acoustic stimulus was used as the sensory stimulation to induce startle response. As a prepulse, acoustic stimuli at the intensity 5 to 15 db above the environmental noise (background noise) was given. After 100 milliseconds, a pulse stimuli at the intensity of 120 db was given. The extent of the response obtained under combination of prepulse and 120 db was divided by that obtained under 120 db alone (%) to obtain response ratio. The response ratio was subtracted from 100 and it was designated prepulse inhibition (PPI). The calculation formula used to calculate the prepulse inhibition (PPI) is shown below. [formula]
The effect of 8-Chloro-11-(4-methyl-1-piperazinyl)-5H-dibenzo[b,e][1,4]-diazepine (clozapine: Sigma-Aldrich Fine Chemical Co.Ltd.), recognized to be a therapeutic agent for schizophrenia of human beings, was evaluated on the present model animal to evaluate the adequacy of this model. To the human recombinant EGF administered group and the control group (cytochrome-C administered), clozapine was peritoneally administrated everyday. This administration was performed from postnatal day 21 and chronic abnormality of prepulse inhibition firstly occurs around this period. The prepulse inhibition (PPI) was measured at the postnatal days 30 (P30), 33 (P33) and 37 (P37) (FIG. 3). The result at postnatal day 30 (P30) is shown in FIG. 3A, the result at postnatal day 33 (P33) is shown in FIG. 3B, and the result at postnatal day 37 (P37) is shown in FIG. 3C, respectively.
Moreover, the effect of 4-(4-[p-Chlorophenyl]-4-hydroxypiperidino)-4′-fluorobutyrophenone (Haloperidol: Sigma-Aldrich Fine Chemical Co.Ltd.) was also evaluated. Haloperidol was peritoneally administrated at a dose of 0.3 mg/kg. In FIG. 4, investigation was performed on the four groups of: (1) the control rats group (CON/VEH) with saline administration (as a vehicle), (2) the EGF administrated/saline injected group (EGF/VEH, n=10), (3) the EGF administered/clozapin injected group (EGF/CLP, n=10) and (4) the EGF administered/haloperidol injected group (EGF/HPD, n=6). The administration of saline, clozapine and haloperidol continued for one week. Twenty-three hours after the final administration, the test was performed on the rats of the respective group.

Assay [2] has as its system SD rats. In words: Motor activity: line crossing (horizonal activity) and rearing (vertical activity). To be noted: for effect on vertical activity of the EGF rat groups: chronic administration for three weeks, tested 48 hours after the final administration, p<0.05 vs EGF/VEH. How it is done: The locomotor activities of the animals were measured at postnatal days 24 and 52. At postnatal day 24, it was measured using automated Activity Monitor (Neuro Science). At postnatal day 53, using a box having the size of 51×51×80 cm with lines of every 17 cms, the number of line crossing (horizonal activity) and the number of learing counts (vertical activity) within 10 minutes were measured.
The mean numbers (±SEM) of horizonal activity (Line Cross) and vertical activity (Rearing) at postnatal days 24 (P24) and 52 (P52) are shown in FIG. 5. FIG. 5A is the result obtained at postnatal day 24 (n=15, 8 males and 7 females) and FIG. 5B is the result obtained at postnatal day 52 (n=10, 5 males and 5 females). In FIG. 5, the left vertical axis indicates the number of the horizonal activity, while the right vertical axis indicates the number of the vertical activity. The left columns indicate the number of line crossing and the right columns indicate the number of learing counts, respectively. Moreover, the white columns indicate the control group (CON) and the black columns indicate the epidermal EGF administrated group, respectively.
The effect of anti-psychotic medicine on motor activity was also investigated using rats of postnatal day 52. The results investigated on four groups are shown in FIG. 6, namely 1) the control rats group (CON/VEH) with saline administration as a vehicle, (2) the EGF administrated/saline injected group (EGF/VEH, n=10), (3) the EGF administered/clozapin injected group (EGF/CLP, n=10) and (4) the EGF administered/haloperidol injected group (EGF/HAL, n=6). The same numbers of male and female are used in each of the groups. Saline, haloperidol and clozapine were administrated for three weeks, and each group was tested 48 hours after the final administration. Moreover, the asterisk mark (*) and the sharp mark (#) indicate significant difference as compared with the CON/VEH group and EGF/VEH group, respectively (* p<0.05, #p<0.05). […] Meanwhile, administration of these medicines was not effective on the horizonal activity.

Assay [3] deals with SD rats. In words: Social interaction test (sniffing behavior against unfamiliar partner). The note with it: postnatal day 52; for effect on reduced sniffing behavior in the EGF administrated group: pretreated for three weeks, test 48 hours after the final injection. From the text:
Social interaction test is a test that makes an index of the schizophrenic patient's trait that they dislike to make contact with other individuals and keeps away from society, can be made to an index. In general, the sniffling behavior of the animals, usually observed when an animal meets to an unknown individual, is observed. In general, in schizophrenic patients and in schizophrenic model animals, decrease of this behavior has been reported.
Moreover, the abnormality in social interaction of the EGF administrated rats was investigated according to the method of File et al. Using two rats of postnatal day 52, sniffling behavior between two rats was observed and the time of sniffling behavior was used as an index of anxiety. […] In concrete, the sniffling behavior was observed under high light level and unfamiliar condition in the opened space. The both groups of animals are videotaped and sniffing behaviors of the animals against those of the partner was recorded (FIG. 7).
In FIG. 7, the mean times (±SEM) of the sniffing behavior were shown. The investigation was performed on the four groups of (1) the control rats group (CON/VEH) with saline administration as a vehicle, (2) the EGF administrated/saline injected group (EGF/VEH, n=10), (3) the EGF administered/clozapin injected group (EGF/CLOZ, n=10) and (4) the EGF administered/haloperidol injected group (EGF/HAL, n=6). The EGF administrated rats were pretreated by clozapine or haloperidol for three weeks and the test was performed after 48 hours of the final injection on each group. The asterisk marks indicate significant difference as compared with the CON/VEH group (** p<0.01). […] Moreover, the reduced sniffing behavior in the EGF adinistrated group recovered by injection of clozapine (EGF/CLOZ). Meanwhile, halopelidol was not effective to recover the sniffing behavior (EGF/HAL).

Assay [4] deals with SD rats. In words: Startle response to acoustic stimuli of 120 db. The note with it: % in comparison with CON/VEH group (FIG. 4B). As for the experimental part: as §1, with “The response ratio was subtracted from 100 and it was designated prepulse inhibition (PPI). The calculation formula used to calculate the prepulse inhibition (PPI) is shown below. [formula]” left out
The results of the prepulse inhibition (FIG. 2A) and the startle response (FIG. 2B) analyzed in accordance to postnatal days are shown in FIG. 2. […]
Moreover, the effect of 4-(4-[p-Chlorophenyl]-4-hydroxypiperidino)-4′-fluorobutyrophenone (Haloperidol: Sigma-Aldrich Fine Chemical Co.Ltd.) was also evaluated. […]

The subject of assay [5] is SD rats. In words: Active avoidance response in shuttle box (learning ability). How it is done:
Furthermore, the learning ability was investigated by active avoidance response. The active avoidance test was performed in a shuttle box, using rats of postnatal day 51-60 (10 trials/day). The conditioning stimulus (CS) adopted here was a stimuli by noise of 80 dB tone and room light for 5 s. When the CS was on, the test animals had to cross the other side of the shuttle box apparatus (avoidance response) in order to turn it off and avoid the appearance of the unconditioned stimulus (US) described below. As the US, an electric shock by conducting 0.6-mA intensity of constant current for 10 s was utilized. Moreover, the test animals were investigated whether they are capable of avoiding the electrical shock by learning.
In FIG. 8, the percentages (±SEM) of the avoidance response are shown. In FIG. 8, the open circle symbols indicate cytochrome-c treated control group (CON: n=10), and the closed triangle symbols indicate EGF-treated group (EGF: n=10), respectively. […] There was also no difference between these two groups in the latency of response or the number of crossings between the two sides of the shuttle box.

The mark [6] stands for this setting: postnatal day 51-60, n=10 per group.

Regarding `CN1CCN(C2=Nc3cc(Cl)ccc3Nc3ccccc32)CC1` [clozapine, 8-Chloro-11-(4-methyl-1-piperazinyl)-5H-dibenzo[b,e][1,4]-diazepine], the “prepulse inhibition of EGF administered group under clozapine (EGF CZP) vs cytochrome-C group (Cont CZP)” value with SD rats [1] (postnatal day 30, 9th day of clozapine treatment) is reported as “significant abnormality in the prepulse inhibition remained”; in the assay with SD rats [1] (postnatal day 33), “significant difference in prepulse inhibition of the EGF administered group (EGF CZP) disappeared”; in the assay with SD rats [1] (postnatal day 37), “significant difference in prepulse inhibition of the EGF administered group (EGF CZP) disappeared”. Further, the “effect on prepulse inhibition in EGF administered rats” value in the assay with SD rats [1] (prepulse 75 db) is “significant improvement in prepulse inhibition”. In the assay with SD rats [2] (postnatal day 52), the “effect on vertical activity of the EGF rat groups” value is “decreased significantly”. In addition, the “effect on reduced sniffing behavior in the EGF administrated group” value with SD rats [3] is on record as “recovered”.
Consider `O=C(CCCN1CCC(O)(c2ccc(Cl)cc2)CC1)c1ccc(F)cc1` [haloperidol, 4-(4-[p-Chlorophenyl]-4-hydroxypiperidino)-4′-fluorobutyrophenone], for which the “effect on prepulse inhibition in EGF administered rats” value in the assay on SD rats [1] (prepulse 75 db) is “such effect was not observed”. Also, the “effect on vertical activity of the EGF rat groups” value with SD rats [2] (postnatal day 52) is “decreased significantly”. Moreover, the “effect on reduced sniffing behavior in the EGF administrated group” value in the assay with SD rats [3] was “not effective”.
Consider “EGF: Human recombinant epidermal growth factor (Higeta Shoyu), protein factor administered to juvenile rats to prepare the schizophrenic model animal (NSDSECPLSHDGYCLHDGVCMYIEALDKYACNCVVGYIGERCQYRDLKWWELR; Epidermal growth factor; UniProt P01133 971-1023, looked up)”, for which the “prepulse inhibition, EGF administrated group vs cytochrome-C administered group” value in the assay on SD rats [1] (postnatal day 30, prepulse intensities 80 db and 85 db) was “significant decrease”. Besides, the “prepulse inhibition, EGF administrated group vs cytochrome-C administered group” value with SD rats [1] (postnatal day 33, prepulse intensities 80 db and 85 db) was “significant decrease”. Further, the “prepulse inhibition, EGF administrated group vs cytochrome-C administered group” value in the assay on SD rats [1] (postnatal day 37, prepulse intensities 75 db, 80 db and 85 db) is “significant decrease”. The “prepulse inhibition and startle response in accordance to postnatal days, EGF group vs cytochrome-C control group” value with SD rats [1] (prepulse 75 db, postnatal days 21, 28, 30, 37, 46, 51, 60 and 90, n=10 per group (FIG. 2)) is reported as “significant difference was recognized after postnatal day 28”. Also, the “startle response against acoustic stimuli of 120 db, EGF administered groups vs CON/VEH group” value with SD rats [4] is “significant stronger”. Besides, in the assay on SD rats [2] (postnatal day 24, n=15), the “number of horizonal activity (line cross), EGF group vs cytochrome-C group (CON)” value is “no significant difference” and the “number of vertical activity (rearing), EGF group vs cytochrome-C group (CON)” value is on record as “no significant difference”. The “number of vertical activity (rearing), EGF group vs cytochrome-C group” value with SD rats [2] (postnatal day 52, n=10, counts within 10 minutes) was “significant difference was observed”. For the same compound, the “sniffing behavior against the unfamiliar partner, EGF/VEH vs control rats” value with SD rats [3] (high light level, unfamiliar condition, p<0.01) is given as “reduced significantly”. Moreover, the “learning ability of the EGF-treated rats” value in the assay on SD rats [5] (adult phase (postnatal day 51-60)) was “appeared to be normal”. The “ability to escape from the electric shock, EGF-treated group vs cytochrome-c control group” value with SD rats [5] (postnatal day 51-60, 10 trials/day, n=10 per group) is “no difference”. For the same compound, in the assay on SD rats [5] (setting [6]), the “latency of response, EGF-treated group vs control group” value is “no difference” and the “number of crossings between the two sides of the shuttle box, EGF-treated group vs control group” value is on record as “no difference”.
